The text below walks through data of patent EP3300716A1, “BIOFILM FORMATION INHIBITOR” (Riken Vitamin Co., Ltd., priority 2015, dated 2016).

“Also recorded” adds a separate entry of the source.

Test [1] relates to Candida albicans NBRC 1594. The test is described as follows: Evaluation of fungistatic effect (streak culture on brain heart infusion agar plate, visual observation). The class given is cell-based. The conditions noted are these: for Evaluation of fungistatic effect: 1000 ppm-treated plot, agar plate, 30°C for 1 day; for fungicidal: conclusion drawn from fungal growth at 1000 ppm. As for the experimental part:
Ten milliliters of a brain heart infusion agar (manufactured by Difco) was sterilized by autoclaving at 121°C for 15 minutes and then cooled down to 50°C. To this, 100 µL of a solution of the test sample in dimethyl sulfoxide (DMSO) was added, and the mixture was stirred until homogeneous. The homogeneous mixture was added to a sterilized culture dish to prepare an agar plate. The concentration of the test sample in the agar plate was 10 ppm, 100 ppm, 300 ppm or 1000 ppm. Next, one loop of a cryopreserved test fungus (Candida albicans NBRC 1594) was streaked on each agar plate and cultured at 30°C for 1 day. […] When no growth was observed along the streak line on the agar plate, the test sample was determined to be fungistatic at the indicated concentration.

Test [2] has as its system Candida albicans NBRC 1594. Briefly: Evaluation of biofilm formation inhibitory effect (96-well microplate static culture, crystal violet staining, O.D. 600). The test is classed as cell-based. Particulars: class by 50% inhibitory concentration, threshold 20 ppm. As for the experimental part:
A potato dextrose agar (manufactured by Difco) was sterilized by autoclaving at 121°C for 15 minutes, added to a sterilized culture dish, and solidified to prepare an agar plate. A cryopreserved test fungus was spread on this agar plate and cultured at 30°C for 2 days. A yeast nitrogen base with 2% glucose (manufactured by Difco) was diluted 10-fold and sterilized by autoclaving at 121°C for 15 minutes. Twenty milliliters of this sterilized medium was placed into a conical flask with a baffle, and one loop of the agar-cultured test fungus was inoculated into the conical flask. Preculture was performed at 30°C with agitation at 150 rpm for 24 hours. Then, the fungal cells were collected by centrifugation (4700 rpm, 10 minutes, 20°C) . The collected fungal cells were washed with 20 mL of physiological saline and collected by centrifugation again (4700 rpm, 10 minutes, 20°C) . The collected fungal cells were resuspended in 10 mL of a Sabouraud-dextrose broth (liquid medium which contained 1.0% by mass of peptone and 4.0% by mass of glucose and was adjusted to a pH of 5.7 with 1 N hydrochloric acid, and hereinafter, it is called "SG medium"). This resuspension was diluted 20-fold with SG medium and used as a test fungal suspension. […] The test samples were separately dissolved in dimethyl sulfoxide (DMSO) to prepare test sample solutions. Two microliters of each test sample solution and 198 µL of the test fungal suspension were added to wells of a 96-well microplate (trade name: TC plate 96 well (Cell+); manufactured by Sarstedt) . The concentration of the test sample in the test sample solution was such that the concentration of the test sample in the combined total amount of the test sample solution and the test fungal suspension, i.e., the concentration of the test sample in the well would be 5 ppm, 25 ppm, 50 ppm or 100 ppm. Static culture was performed in the 96-well microplate containing the test sample solution and the test fungal suspension at 30°C for 2 days to allow biofilm formation to proceed in each well. […] After the static culture, the liquid in each well, including the test sample solution, the culture medium and the like, was removed, and the residue adherent to each well (cells, secretions, deposits, etc.) was regarded as a biofilm. To each well, 50 µL of a 0.01% by mass aqueous crystal violet solution (trade name, manufactured by Becton, Dickinson and Company) was added for staining of the biofilm. […] Then, 200 µL of ethanol was added to each well to elute the crystal violet bound to the biofilm, and the degree of formation of the biofilm adherent to the microplate was quantified. The quantification was performed by measuring the absorbance at 600 nm (O.D. 600) in each well with a microplate reader (model: SH-9000 Lab; manufactured by CORONA […] Co., Ltd.). The absorbance at 600 nm measured for the biofilm formed in the control well was used as the reference absorbance and assumed as 100% in terms of the degree of biofilm formation. The degree of biofilm formation for each test sample was calculated by comparison of the absorbance for the test sample with the reference absorbance. […] The graph of the logarithmic approximation curve was used to calculate the concentration of the test sample where the absorbance for the test sample is equal to 50% of the reference absorbance, that is, the degree of biofilm formation was 50% (hereinafter called "50% inhibitory concentration"). […]

Test [3] deals with Candida biofilm. Particulars: Table 2 of Patent Literature 1; cited from earlier work.

`CCCCCCCCCCCC(=O)OCC(O)COC(=O)CCCCCCCCCCC` [Reference product 1, monoglyceryl dilaurate, reference compound]: in test [1], the “Evaluation of fungistatic effect” value is reported as “not fungistatic; also recorded: Fungal growth was observed in a 1000 ppm-treated plot. No fungistatic effect” and the fungicidal entry is “not fungicidal”. In addition, in test [2], the Evaluation entry is on record as “Poor in inhibition of biofilm formation (when the 50% inhibitory concentration of the test sample was more than 20 ppm, the test sample was regarded as poor in the inhibition of biofilm formation)”.
For “diglyceryl dicaprylate [Present invention product 2]”, in test [1], the “Evaluation of fungistatic effect” value is “Fungal growth was observed in a 1000 ppm-treated plot. No fungistatic effect”; the fungicidal result is “none of the present invention products 1, 2, 3 and 4 were fungicidal”. The Evaluation result in test [2] was “Excellent in inhibition of biofilm formation (When the 50% inhibitory concentration of the test sample was 20 ppm or less, the test sample was regarded as excellent in the inhibition of biofilm formation)”.
As for “monoglyceryl dicaprylate [Present invention product 1]”, in test [1], the “Evaluation of fungistatic effect” value was “Fungal growth was observed in a 1000 ppm-treated plot. No fungistatic effect”; the fungicidal result is “none of the present invention products 1, 2, 3 and 4 were fungicidal”. Moreover, in test [2], the Evaluation entry was “Excellent in inhibition of biofilm formation (When the 50% inhibitory concentration of the test sample was 20 ppm or less, the test sample was regarded as excellent in the inhibition of biofilm formation)”.
For `CC(=O)N1CCN(c2ccc(OCC3COC(Cn4ccnc4)(c4ccc(Cl)cc4Cl)O3)cc2)CC1` (stereo not drawn) [Reference product 2, ketoconazole, reference compound], in test [2], the Evaluation result was “Poor in inhibition of biofilm formation (when the 50% inhibitory concentration of the test sample was more than 20 ppm, the test sample was regarded as poor in the inhibition of biofilm formation)”.
Regarding glyceryl dilaurate, the “effective against biofilm formation” value in test [3] is on record as “less effective against biofilm formation than glyceryl monolaurate”.
As for diglyceryl monocaprylate, in test [3], the “effective against biofilm formation” value is reported as “poorly effective against biofilm formation”.
With “diglyceryl dicaprylate [Present invention product 3]”, in test [1], the “Evaluation of fungistatic effect” value is “Fungal growth was observed in a 1000 ppm-treated plot. No fungistatic effect”; the fungicidal result was “none of the present invention products 1, 2, 3 and 4 were fungicidal”. The Evaluation result in test [2] is “Excellent in inhibition of biofilm formation (When the 50% inhibitory concentration of the test sample was 20 ppm or less, the test sample was regarded as excellent in the inhibition of biofilm formation)”.
